Test system: Mild to Moderate AD Patients
Assay: Phase II placebo-controlled trial: change in brain volume by volumetric MRI (vMRI) at week 52
Format: in vivo, human
Settings: for Change in hippocampus volume, least square means (standard error) / Change in whole brain volume, least square means (standard error): mixed-effect model
Source text: Test Example 1 Multicenter Randomized Double-Blind Phase II Placebo-Controlled Trial for Assessing Effectiveness and Safety of Compound A in Mild to Moderate AD Patients
Subject (selection criteria): Patients were screened in a period from 42 days before treatment assignment to the assignment based on the following selection criteria.
• Patients who were probable AD and are 55 years old or older and 85 years old or younger at the time of obtaining consent of screening. • Patients with an MMSE score of 12 to 22 at the time of screening • Patients with a Modified Hachinski Ischemia Scale score of 4 or less • Patients who have been treated with a donepezil hydrochloride or rivastigmine transdermal system for at least 4 months before the baseline and with a stable dose thereof for 3 months before the baseline. • In the case of patients who have received memantine in addition to being treated with a donepezil hydrochloride or rivastigmine transdermal system, patients who have been treated with memantine for at least 4 months before the baseline and with a stable dose thereof for 3 months before the baseline. • Patients whose brain MRI or CT results match AD at the time of screening Organization of groups: Patients matched (484 patients) were randomly divided into the following 3 groups and the trial was started. (1) High dose group: 224 mg of a test compound (160 mg in terms of Compound A) was orally administered once a day for 4 weeks and then 448 mg of a test compound (320 mg in terms of Compound A) was orally administered once a day for 48 weeks (158 patients) (2) Low dose group: 224 mg of a test compound (160 mg in terms of Compound A) was orally administered once a day for 52 weeks (166 patients) (3) Placebo group: placebo was orally administered once a day for 52 weeks (158 patients) Method of Assessment: Volumetric MRI
Brain volume of subjects was measured by vMRI scan at the screening and after 52 weeks, and the volume change of the whole brain and the hippocampus of the subjects were quantified to assess brain atrophy based on the change from the screening.
Furthermore, volume change of the whole brain and 101 areas (obtained by dividing the areas existing in both the left brain and the right brain of the Brodmann areas (1 to 52) into 101 areas) in each subject was quantified to assess brain atrophy based on the change from the screening.
Changes in the volume of the whole brain and the hippocampus after 52 weeks from the baseline were compared between the high dose group and the placebo group, and between the low dose group and the placebo group based on Mixed-effect Models. For models, the treatment groups were included as a fixed effect, age, baseline of the respective brain volumes (the whole brain or the hippocampus), baseline of MMSE and ApoE4 genotype (positive/negative) were included as covariates, and trial sites were included as a random effect.
Furthermore, changes in the respective volumes of the whole brain and the 101 areas after 52 weeks from the baseline were compared between the high dose group and the placebo group, and between the low dose group and the placebo group.

[1] = High dose group (160 mg for 4 weeks, then 320 mg in terms of Compound A, oral once a day, for 48 weeks), week 52 vs baseline, vMRI
[2] = Low dose group (160 mg in terms of Compound A, oral once a day, 52 weeks), week 52 vs baseline, vMRI

## OC1CN(CCCOCCc2ccc3sccc3c2)C1 [Compound A, 1-(3-(2-(1-benzothiophen-5-yl)ethoxy)propyl)azetidin-3-ol]
Compound A group vs placebo group, week 52 from baseline
  Change in the volume of the whole brain and the hippocampus compared with placebo group (in words): volume reduction tended to be smaller
Compound A high dose group
  Volume reduction of the cerebellum compared to the placebo group (in words): same tendency as in the low dose group was observed
Compound A low dose group vs placebo group, week 52
  Difference in effects on the change in hippocampal volume vs placebo group (in words): statistically significant
Compound A low dose group, whole brain and 101 areas, Nos. 1, 2, 4 and 8 in Table 2
  Volume reduction of the cerebellum compared to the placebo group (in words): particularly tended to be suppressed
[1]
  Change in hippocampus volume, least square means (standard error): −0.31(0.057) mL
  Change in whole brain volume, least square means (standard error): −20.05(3.821) mL
High dose group, week 52 vs baseline, p-value 0.0996
  Change in hippocampus volume, difference from placebo group (95% confidence interval): 0.08(−0.02, 0.18) mL
High dose group, week 52 vs baseline, p-value 0.2581
  Change in whole brain volume, difference from placebo group (95% confidence interval): 3.94(−2.91, 10.79) mL
[2]
  Change in hippocampus volume, least square means (standard error): −0.27(0.053) mL
  Change in whole brain volume, least square means (standard error): −21.37(3.582) mL
Low dose group, week 52 vs baseline, p-value 0.0106
  Change in hippocampus volume, difference from placebo group (95% confidence interval): 0.12(0.03, 0.22) mL
Low dose group, week 52 vs baseline, p-value 0.4456
  Change in whole brain volume, difference from placebo group (95% confidence interval): 2.63(−4.15, 9.40) mL
Low dose group, week 52 vs baseline, vMRI, placebo −0.5499, p 0.0323
  Change in brain volume, mean value: ctx-lh-parsorbitalis: 0.1244
Low dose group, week 52 vs baseline, vMRI, placebo −0.6899, p 0.0005
  Change in brain volume, mean value: Left-Cerebellum-Cortex: −0.2695
Low dose group, week 52 vs baseline, vMRI, placebo −0.7248, p 0.0090
  Change in brain volume, mean value: Right-Cerebellum-Cortex: −0.3209
Low dose group, week 52 vs baseline, vMRI, placebo −1.4416, p 0.0157
  Change in brain volume, mean value: Right-Cerebral-White-Matte: −1.0753
Low dose group, week 52 vs baseline, vMRI, placebo −1.5322, p 0.0146
  Change in brain volume, mean value: ctx-rh-lateral orbitofrontal: −0.8995
Low dose group, week 52 vs baseline, vMRI, placebo −1.5679, p 0.0215
  Change in brain volume, mean value: Left-Cerebral-White-Matter: −1.2418
Low dose group, week 52 vs baseline, vMRI, placebo −1.5952, p 0.0054
  Change in brain volume, mean value: Whole_brain: −1.3142
Low dose group, week 52 vs baseline, vMRI, placebo −1.6919, p 0.0014
  Change in brain volume, mean value: Right-Cerebellum-White-Matter: −0.89
Low dose group, week 52 vs baseline, vMRI, placebo −2.0490, p 0.0001
  Change in brain volume, mean value: Left-Cerebellum-White-Matter: −0.9201
Low dose group, week 52 vs baseline, vMRI, placebo −2.6470, p 0.0030
  Change in brain volume, mean value: ctx-lh-insula: −1.9609
Low dose group, week 52 vs baseline, vMRI, placebo −2.6510, p 0.0056
  Change in brain volume, mean value: ctx-rh-insula: −1.9976
Low dose group, week 52 vs baseline, vMRI, placebo −2.9861, p 0.0013
  Change in brain volume, mean value: ctx-rh-superior temporal: −2.1332
Low dose group, week 52 vs baseline, vMRI, placebo −3.0880, p 0.0232
  Change in brain volume, mean value: Left-Hippocampus: −2.3402
Low dose group, week 52 vs baseline, vMRI, placebo −3.2601, p 0.0124
  Change in brain volume, mean value: ctx-rh-inferior temporal: −2.6157
Low dose group, week 52 vs baseline, vMRI, placebo −3.8173, p 0.0195
  Change in brain volume, mean value: ctx-lh-entorhinal: −2.97
